Results from US20250333714A1, “ARTIFICIAL DNA REPLISOME AND METHODS OF USE THEREOF” (Regents of the University of Minnesota, priority 2021, published 2025).
Numbering of substitutions follows the chain as printed. Names may count otherwise.

Assays:
[1] = test system: DNA; details: cited from earlier work
[2] = test system: kanR* gene on target plasmid; assay: kanR* reversion assay (frequency of kanamycin-resistant colonies); assay type: cell-based, E. coli
Method: Three DNA elements were added to E. coli to create a targeted error-prone artificial replisome: a constitutively-expressed, chromosomal CisA gene, a target vector plasmid and a helper vector plasmid (FIG. 1A-1B and FIG. 5). The target vector contained the gene(s) of interest targeted for mutagenesis between the CisA initiation and termination sequences. To quantify the increase in mutagenesis, mutagenesis was targeted to the gene for a kanamycin resistance protein (aminoglycoside phosphotransferase (3)-IIIa). This gene, named kanR*, carried a single nucleotide substitution (A785C), which encodes an E262A amino acid substitution that inactivates the kanamycin resistance (Thompson et al., J Biol Chem, 274 (43): 30697-30706, (1999)). Mutations that reverse this substitution will restore gene function, allowing the cells to grow in the presence of kanamycin. Resistant colony-forming unit (CFU) per pl of full density culture (frequency of resistant CFU per cell plated) is used as a readout for mutagenic capacity. The helper plasmid contains a gene encoding the fusion of the error-prone T5 DNA polymerase to the Rep helicase under the control of a T7 promoter. (The host cell also contains a chromosomal gene to express the T7 RNA polymerase and a deletion of the chromosomal Rep gene to eliminate potential competition with the fusion protein.)
The DNA polymerase activity of the T5 DNA polymerase-Rep helicase fusion protein was measured by its capacity to mutate the target, kanR* and restore kanamycin resistance. The bacteria, in this Example, contained all three elements of the targeted error-prone artificial replisome: a constitutively-expressed, chromosomal CisA gene, the target plasmid carrying the kanR* gene flanked by the initiation and termination sequences, and the helper plasmid expressing the T5 DNA polymerase-Rep helicase fusion protein. These cells were picked from a transformation plate, propagated in liquid for ten generations to accumulate mutations and then plated onto kanamycin-containing media for selection.
KanR* reversion assay was used. Three transformations were carried out, all into the host cell for TADR, as shown in FIG. 2C: the helper plasmid with the wildtype T5 polymerase co-transformed with the target plasmid; the helper plasmid with the error-prone T5 polymerase mutant, with the target plasmid without the recognition and termination sequences; the helper plasmid with the error-prone T5 polymerase mutant, with the target plasmid. Transformant colonies were selected on LB agar plates supplemented with 15 ng/μl chloramphenicol and 50 ng/μl ampicillin and inoculated to a liquid LB cultures with chloramphenicol and ampicillin. After overnight growth, 50 μl culture from each sample was plated on LB plates supplemented with 30 ng/μl kanamycin. After 16 h incubation at 37° C., colonies were counted.

[3] = test system: bacteria lacking endogenous Rep helicase; assay: assay of sensitivity to nalidixic acid (Rep helicase activity); assay type: cell-based, E. coli; details: 2.5 ng/μl nalidixic acid; rep- cells with helper plasmid
Method: The Rep helicase activity of the T5 DNA polymerase-Rep helicase fusion was measured by its ability to alleviate growth retardation caused by nalidixic acid in a strain lacking endogenous Rep helicase (Henderson et al., PLOS ONE, 10 (5): e0128092, (2015)). Bacteria normally tolerate low levels of nalidixic acid, but bacteria lacking endogenous Rep helicase grow more slowly because nalidixic acid inhibits DNA gyrase and topoisomerase.
Assay of sensitivity to nalidixic acid was used(Henderson et al., PLOS ONE, 10 (5): e0128092, (2015)). Three cell lines were prepared, namely TADR cells modified to have intact chromosomal rep, TADR cells (rep-) and TADR cells (rep-) transformed with helper plasmid (expressing the fusion protein). A Rep gene knockout mutation was P1-transduced from Keio-collection(Baba et al., Mol Syst Biol, 2 2006.0008-2006.0008, (2006)) into the host cell for using standard technique of molecular cloning(Green, (2012)). The helper plasmid was transformed into this rep-cell and selected on LB agar plate supplemented with 50 ng/μl ampicillin. From this cell line together with other two—the host cell for, its rep-derivative, single colonies were inoculated into liquid LB culture (ampicillin was added to cultures of the first cell line). […]

[4] = test system: primed DNA substrate; details: cited from earlier work
[5] = test system: primed DNA substrate; assay: association of DNA polymerase with primed DNA substrate; assay type: binding; details: local effective concentration of polymerase 0.2-0.6 mM; kon of T7 assumed
Method: The artificial replisome must simultaneously unwind DNA and copy the exposed strand to prevent degradation of the exposed ssDNA, which causes genetic instability. In addition, DNA synthesis must avoid premature termination within the target region. Connecting Rep helicase and T5 DNA polymerase with a flexible linker increases the local effective concentrations to an estimated 0.2-0.6 mM(Li et al., Protein Sci, 27 (9): 1600-1610, (2018)) in order to achieve both of these goals. The CisA protein recruits Rep helicase to the target region and stabilizes it. Rep helicase unwinds DNA at about 144 base-pairs/s (Arslan et al., Science (New York, N.Y.), 348 (6232): 344-347, (2015)), so DNA synthesis must initiate at least that fast to proceed simultaneously. The bimolecular association rate constant of T7 DNA polymerase (kon) for primed DNA substrate is 3.6×10^7M^−1s^−1 (Luo et al., Proceedings of the National Academy of Sciences, 104 (31): 12610-12615, (2007)) and it was assumed T5 DNA polymerase associates at a similar rate. If the local effective concentration of polymerase is 0.2-0.6 mM, then the rate of association is 7200-22,000 s^−1, which far exceeds the rate of unwinding. […]

[6] = six-His tag linked to C-terminus; cited from earlier work

For “E. coli PolA: E. coli DNA polymerase I, slower than Rep helicase”, the “speed of DNA unwinding or DNA synthesis” value [1] is listed as roughly 15 base-pairs/s.

In the case of “T5 DNA polymerase-Rep helicase fusion protein: T5 DNA polymerase (D164A, E166A, A593R) linked by 81-amino acid linker to Rep helicase; SEQ ID NO:22”, the “frequency of kanamycin-resistant colonies, fold over control whose target plasmid was without initiation sequence” value ([2]; LB) is reported as 4.2 fold, the “frequency of kanamycin-resistant colonies, fold increase over control with wildtype T5 DNA polymerase” value ([2]; LB, wildtype Rep, T5 D164A, E166A, A593R) is reported as 128 fold and the “increase in mutation rate from engineered 5′ UTR” value ([2]; stem-loop designed into 5′ UTR of the fusion gene) is reported as “up to 150 fold”. The “effect on nalidixic acid inhibition of growth” value [3] was “partially alleviated”.

With “fusion containing RepΔC33: fusion protein in which the 33 C-terminal amino acids of Rep helicase were deleted; SEQ ID NO:10” the “frequency of kanamycin-resistant colonies, fold over control whose target plasmid was without initiation sequence” value ([2]; LB) was 67 fold and the “increase in selectivity from RepΔC33 versus wildtype Rep” value ([2]; LB) was 16 fold.

B1: I308V: self-evolved variant of error-prone T5 DNA polymerase with single I308V substitution; SEQ ID NO:3 (protein)
chain: MKIAVVDKALNNTRYDKHFQLYGEEVDVFHMCNEKLSGRLLKKHITIGTPENPFDPNDYDFVILVGAEPFLYFAGKKGIGDYTGKRVEYNGYANWIASISPAQLHFKPEMKPVFDATVENIHDIINGREKIAKAGDYRPITDPDEAEEYIKMVYNMVIGPVAFASATSALYCRDGYLLGVSISHQEYQGVYIDSDCLTEVAVYYLQKILDSENHTIVFHNLKFDMHFYKYHLGLTFDKAHKERRLHDTMLQHYVLDERRGTHGLKSLAMKYTDMGDYDFELDKFKDDYCKAHKIKKEDFTYDLIPFDVMWPYAAKDTDATIRLHNFFLPKIEKNEKLCSLYYDVLMPGCVFLQRVEDRGVPISIDRLKEAQYQLTHNLNKAREKLYTYPEVKQLEQDQNEAFNPNSVKQLRVLLFDYVGLTPTGKLTDTGADSTDAEALNELATQHPIAKTLLEIRKLTKLISTYVEKILLSIDADGCIRTGFHEHMTTSGRLSSSGKLNLQQLPRDESIIKGCVVAPPGYRVIAWDLTTAEVYYAAVLSGDRNMQQVFINMRNEPDKYPDFHSNIAHMVFKLQCEPRDVKKLFPALRQAAKRITFGILYGSGPAKVAHSVNEALLEQAAKTGEPFVECTVADAKEYIETYFGQFPQLKRWIDKCHDQIKNHGFIYSHFGRKRRLHNIHSEDRGVQGEEIRSGFNAIIQSASSDSLLLGAVDADNEIISLGLEQEMKIVMLVHDSVVAIVREDLIDQYNEILIRNIQKDRGISIPGCPIGIDSDSEAGGSRDYSCGKMKKQHPSIACIDDDEYTRYVKGVLLDAEFEYKKLAAMDKEHPDHSKYKDDKFIAVCKDLDNVKRILGA
For B1, the “increase in mutation rate (kanamycin-resistant CFU) from self-evolution / I308V” value ([2]; versus ancestor error-prone T5 DNA polymerase) was 3.2 fold.

B2: T7 DNA polymerase: bacteriophage T7 DNA polymerase, used in the initial failed TADR (protein, UniProt P00581 1-704, looked up)
DNA-directed DNA polymerase: MIVSDIEANALLESVTKFHCGVIYDYSTAEYVSYRPSDFGAYLDALEAEVARGGLIVFHNGHKYDVPALTKLAKLQLNREFHLPRENCIDTLVLSRLIHSNLKDTDMGLLRSGKLPGKRFGSHALEAWGYRLGEMKGEYKDDFKRMLEEQGEEYVDGMEWWNFNEEMMDYNVQDVVVTKALLEKLLSDKHYFPPEIDFTDVGYTTFWSESLEAVDIEHRAAWLLAKQERNGFPFDTKAIEELYVELAARRSELLRKLTETFGSWYQPKGGTEMFCHPRTGKPLPKYPRIKTPKVGGIFKKPKNKAQREGREPCELDTREYVAGAPYTPVEHVVFNPSSRDHIQKKLQEAGWVPTKYTDKGAPVVDDEVLEGVRVDDPEKQAAIDLIKEYLMIQKRIGQSAEGDKAWLRYVAEDGKIHGSVNPNGAVTGRATHAFPNLAQIPGVRSPYGEQCRAAFGAEHHLDGITGKPWVQAGIDASGLELRCLAHFMARFDNGEYAHEILNGDIHTKNQIAAELPTRDNAKTFIYGFLYGAGDEKIGQIVGAGKERGKELKKKFLENTPAIAALRESIQQTLVESSQWVAGEQQVKWKRRWIKGLDGRKVHVRSPHAALNTLLQSAGALICKLWIIKTEEMLVEKGLKHGWDGDFAYMAWVHDEIQVGCRTEEIAQVVIETAQEAMRWVGDHWNFRCLLDTEGKMGPNWAICH
In the case of B2, the “bimolecular association rate constant (kon)” value [4] is given as 3.6e+07 M⁻¹ s⁻¹ and the targeted mutagenesis ([2]; TADR implemented with T7 DNA polymerase) is given as “no targeted mutagenesis was seen”.

B3: T5 DNA polymerase: DNA polymerase of bacteriophage T5, NCBI YP_006950.1, SEQ ID NO:1 (protein)
chain: B1 chain with A164D, A166E, V308I, R593A
modifications: Escherichia virus T5
In the case of B3, the rate of association [5] is listed as 7200-22,000 s^−1 and the “effect of six-His tag on polymerase activity” value [6] is listed as “did not interfere with polymerase activity”.
